Test results: patent US5422350A, “Nitrogen substituted acridine and cytochrome P450 inhibitors and methods of use” (priority 1992, dated 1995)
Read-outs that look alike come from different tables or passages of the source.

Columns and labels:
[1] = tested on: ethoxyresorufin O-deethylase; conditions: rat liver microsomes, Back et al. (1983); cited from earlier work
[2] = tested on: hepatocytes from MC induced male rats; test: Irreversible binding of 14C-tacrine and 14C-1-hydroxytacrine in MC induced rat hepatocytes; format: in vitro ADME; conditions: for inhibition of irreversible binding for both tacrine and 1-hydroxytacrine: relative ranking
[3] = tested on: P450 1A2; conditions: cited from earlier work
[4] = target: T1, P450 1A2 (Homo sapiens, UniProt P05177); test: in vitro
T1 sequence (P05177 2-516 limits assumed): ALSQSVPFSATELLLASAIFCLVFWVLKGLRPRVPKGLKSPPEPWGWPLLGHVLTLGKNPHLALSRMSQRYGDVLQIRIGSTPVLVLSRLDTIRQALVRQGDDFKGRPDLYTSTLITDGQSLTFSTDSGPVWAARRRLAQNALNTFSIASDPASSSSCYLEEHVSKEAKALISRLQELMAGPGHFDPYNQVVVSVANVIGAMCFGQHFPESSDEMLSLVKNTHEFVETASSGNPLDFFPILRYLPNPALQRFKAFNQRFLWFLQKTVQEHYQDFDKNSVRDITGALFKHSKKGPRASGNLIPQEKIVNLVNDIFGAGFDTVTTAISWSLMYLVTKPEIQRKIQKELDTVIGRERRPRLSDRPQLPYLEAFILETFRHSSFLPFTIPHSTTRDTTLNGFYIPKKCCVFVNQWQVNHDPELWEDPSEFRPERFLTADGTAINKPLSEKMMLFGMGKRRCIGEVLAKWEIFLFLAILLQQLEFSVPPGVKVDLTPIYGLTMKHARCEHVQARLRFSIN
Method: (§1) PHARMACOL., Vol. 42, pp. 767-772 (1990) was conducted. […] The effect of various enoxacin concentrations (8, 20, and 50 μM) on the extent of irreversible binding was examined in a separate study.

[5] = tested on: P450 1A2; test: in vitro; conditions: for 1-hydroxytacrine equivalents irreversibly bound to 1 mg microsomal protein: 1-hydroxytacrine 0.5 μM
Method: as §1

[6] = Irreversible protein binding of 14C-tacrine-derived radioactivity, human liver microsomes; conditions: for effect on irreversible protein binding / Tacrine equivalents irreversibly bound to 1 mg microsomal protein: Human Prep B, 60 min; for Tacrine equivalents irreversibly bound to 1 mg microsomal protein: N = 3
Method: (§2) Total reaction volume was 3 mL. Reactions were stopped by freezing in liquid nitrogen or dry-ice acetone. […] D. J. Waxman and L. Axaroff, "Phenobarbital induction of cytochrome P-450 Gene Expression", BIOCHEM J, Vol. 281, pp. 577-592 (1992); P. Soucek and I. Gut, supra.
(§3) C. N. Martin and R. C. Garner: "Covalent Binding In Vitro and In Vivo" in BIOCHEMICAL TOXICOLOGY: A PRACTICAL APPROACH, Eds. K. Snell and B. Mullock, IRL, Wash. D.C. pp. 109-126 (1987).

[7] = Clinical interaction, theophylline with tacrine; format: in vivo, human; conditions: single 158-mg theophylline with repeated 20-mg tacrine
From the text: M. E. Campbell, D. M. Grant, T. Inaba, and W. Kalow, "Biotransformation of Caffeine, Paraxanthine, Theophylline, and Theobromine by polycyclic Aromatic Hydrocarbon-Inducible Cytochrome(s) P-450 in Human Liver Microsomes", DRUG METAB. DISPOS. Vol. 15, pp. 237-249 (1987). Therefore, a potential explanation for the theophylline-tacrine clinical interaction is competition for the same P450 1A2 enzymes.

[8] = In vitro metabolism of 14C-tacrine in rat liver microsomes; conditions: microsomes from pretreated rats vs control
Method: as §2

[9] = Irreversible protein binding of 14C-tacrine-derived radioactivity, rat liver microsomes; conditions: for effect on irreversible protein binding / Tacrine equivalents irreversibly bound to 1 mg microsomal protein: MC induced Rat, 60 min; for Tacrine equivalents irreversibly bound to 1 mg microsomal protein: N = 3; for effect of pretreatment on binding: rat
Method: as §2, §3

[10] = tested on: P450 2D6; conditions: cited from earlier work
[11] = Single-dose pharmacokinetic and metabolic disposition study of [14C]tacrine HCl in human male volunteers; format: in vivo; conditions: for mean AUC(O-tldc), dose proportionality: 10 and 40 mg oral, plasma
Method: Plasma and red blood cells (RBC) were collected predose and for 48 hours postdose. Urine and feces were collected predose and for 96 hours postdose. Urine and plasma samples were analyzed directly by liquid scintillation spectrometry while RBC and fecal samples were solubilized prior to counting. […] Metabolic profiling of urine was performed by HPLC radioactivity detection. Metabolites were identified by HPLC/photodiode array/mass spectrometry.

[12] = Clinical drug interaction study, tacrine with cimetidine; format: in vivo, human; conditions: 40 mg tacrine with 300-mg four times a day cimetidine vs tacrine alone
From the text: A. Somogyi and M. Muirhead, "Pharmacokinetic Interactions of Cimetidine", CLIN. PHARMACOKIN., Vol. 12, pp. 321-366 (1987).

[13] = 1-hydroxytacrine 10 uM + inhibitor 50 uM
[14] = tacrine 10 uM + inhibitor 50 uM
[15] = 20 min, read-out: inhibition of 1-hydroxytacrine irreversible binding
[16] = 20 min, read-out: inhibition of tacrine irreversible binding

CCN(CC)CCCC(C)Nc1ccnc2cc(Cl)ccc12 (stereo not shown) [Chloroquine, 7-chloro-4-(4-diethylamino-1-methylbutylamino)quinoline]
inhibition of ethoxyresorufin O-deethylase activity [1]: inhibitors of ethoxyresorufin O-deethylase activity

Cc1nc2c([nH]1)c(=O)n(C)c(=O)n2Cc1ccco1 [Furafylline, 1H-purine-2,6-dione, 3-(2-furanylmethyl)-3,7-dihydro-1,8-dimethyl]
irreversible binding of 1-hydroxytacrine-derived radioactivity, Percent Control Value [2, 13]: 31.7%
inhibition of irreversible binding for both tacrine and 1-hydroxytacrine [2]: most effective inhibitor
irreversible binding of tacrine-derived radioactivity, Percent Control Value [2, 14]: 31.6%

CCn1cc(C(=O)O)c(=O)c2cc(F)c(N3CCNCC3)nc21 [Enoxacin]
P450 1A2 inhibition [3]: selective inhibitor of P450 1A2
inhibition of tacrine irreversible binding and biotransformation ([4]; 50 μM enoxacin vs 8, 20 μM): greatest inhibition
inhibition at 8 µM [4, 15]: 8.2%
inhibition at 20 µM [4, 15]: 22.2%
inhibition at 50 µM [4, 15]: 51.7%
inhibition at 8 µM [4, 16]: 14.4%
inhibition at 20 µM [4, 16]: 29.8%
inhibition at 50 µM [4, 16]: 43.4%
effect on the binding of 1-hydroxytacrine ([4]; enoxacin 8, 20, 50 μM): inhibitory effect
inhibition at 50 µM ([4]; read-out: inhibition of extent of irreversible binding (maximum)): ≤ 73%
1-hydroxytacrine equivalents irreversibly bound to 1 mg microsomal protein ([5]; enoxacin 8.0, 20 min): 0.017 ± 0.001
1-hydroxytacrine equivalents irreversibly bound to 1 mg microsomal protein ([5]; enoxacin 20.0, 20 min): 0.014 ± 0.001
1-hydroxytacrine equivalents irreversibly bound to 1 mg microsomal protein ([5]; enoxacin 50.0, 20 min): 0.009 ± 0.001
Tacrine equivalents irreversibly bound to 1 mg microsomal protein ([5]; Table 6, tacrine 0.3 μM, line below enoxacin 50.0 (concentration not given), 20 min): 0.023 ± 0.002
Tacrine equivalents irreversibly bound to 1 mg microsomal protein ([5]; Table 6, tacrine 0.3 μM, line of enoxacin 20.0, 20 min): 0.036 ± 0.008
Tacrine equivalents irreversibly bound to 1 mg microsomal protein ([5]; Table 6, tacrine 0.3 μM, line of enoxacin 50.0, 20 min): 0.028 ± 0.001
Tacrine equivalents irreversibly bound to 1 mg microsomal protein ([5]; tacrine 0.5 μM + enoxacin 50 μM, 5 min): 0.009 ± 0.002 nmol
Tacrine equivalents irreversibly bound to 1 mg microsomal protein ([5]; tacrine 0.5 μM + enoxacin 50 μM, 10 min): 0.017 ± 0.003 nmol
Tacrine equivalents irreversibly bound to 1 mg microsomal protein ([5]; tacrine 0.5 μM + enoxacin 50 μM, 20 min): 0.026 ± 0.002 nmol
Tacrine equivalents irreversibly bound to 1 mg microsomal protein ([5]; tacrine 0.5 μM + enoxacin 50 μM, 45 min): 0.052 ± 0.006 nmol
irreversible binding of 1-hydroxytacrine-derived radioactivity, Percent Control Value [2, 13]: 79.8%
inhibition of irreversible binding for both tacrine and 1-hydroxytacrine [2]: less of an effect
irreversible binding of tacrine-derived radioactivity, Percent Control Value [2, 14]: 78.9%

Nc1c2c(nc3ccc(O)cc13)CCCC2 [7-Hydroxytacrine, 7-hydroxytacrine]
levels over time ([6]; time course through 1 hour): levels rise then fall over time

Cn1c(=O)c2[nH]cnc2n(C)c1=O [Theophylline]
major route of clearance [3]: metabolism by P450 1A2
increase in theophylline elimination half-life [7]: two-fold

CCn1cnc(C(=O)NC)c1C(=O)NC [Ethimizol]
irreversible binding of 1-hydroxytacrine-derived radioactivity, Percent Control Value [2, 13]: 65.6%
inhibition of irreversible binding for both tacrine and 1-hydroxytacrine [2]: less of an effect
irreversible binding of tacrine-derived radioactivity, Percent Control Value [2, 14]: 80.1%

Cc1ccc2cc3c(ccc4ccccc43)c3c2c1CC3 [MC, 3-methylcholanthrene]
effect of pretreatment (induction) on 1-hydroxytacrine formation [8]: Less 1-hydroxytacrine was observed
increase in binding compared to control rat ([9]; MC induced rat): ~3 fold

N[C@@H](CCC(=O)N[C@@H](CS)C(=O)NCC(=O)O)C(=O)O [Glutathione]
effect on irreversible protein binding ([9]; with GSH (5 mM)): 58.3
Tacrine equivalents irreversibly bound to 1 mg microsomal protein ([9]; with GSH (5 mM)): 0.058 ± 0.005 nmol
detectable adducts with the reactive intermediate [6]: failed to produce detectable adducts
effect on irreversible binding [6]: dramatic reduction in irreversible binding
effect on irreversible protein binding ([6]; with GSH (5 mM)): 85.0
Tacrine equivalents irreversibly bound to 1 mg microsomal protein ([6]; with GSH (5 mM)): 0.031 ± 0.001 nmol
irreversible binding of 1-hydroxytacrine-derived radioactivity, Percent Control Value ([2]; 1-hydroxytacrine 10 uM + glutathione 5 mM): 49.1%
irreversible binding of tacrine-derived radioactivity, Percent Control Value ([2]; tacrine 10 uM + glutathione 5 mM): 62.6%

CN/C(=N/CCSCc1nc[nH]c1C)NC#N [Cimetidine, N-cyano-N'-methyl-N"-[2[[(5-methyl-1H-imidazol-4-yl)methyl]thio]ethyl]guanidine]
inhibition of P450 enzymes including P450 1A2 [3]: inhibitor of P450 enzymes including P450 1A2

CCC1(c2ccccc2)C(=O)NC(=O)NC1=O [Phenobarbital]
effect of pretreatment (induction) on 1-hydroxytacrine formation [8]: only a minimal effect on 1-hydroxytacrine formation
effect of pretreatment on binding [9]: little or no effect on binding

C=C[C@H]1C[N@@]2CC[C@H]1C[C@@H]2[C@@H](O)c1ccnc2ccc(OC)cc12 [Quinidine]
P450 2D6 inhibition [10]: inhibitor of P450 2D6

Nc1c2c(nc3ccccc13)CCC(O)C2 (stereo not shown) [2-hydroxytacrine]
mean AUC(O-tldc), dose proportionality [11]: increased greater than dose proportionally

COc1cc(NC(C)CCCN)c2ncccc2c1 (stereo not shown) [Primaquine, 8-(4-amino-1-methylbutylamino)-6-methoxyquinoline]
inhibition of ethoxyresorufin O-deethylase activity [1]: inhibitors of ethoxyresorufin O-deethylase activity

NNC(=O)c1ccncc1 [Isoniazid]
effect of pretreatment (induction) on 1-hydroxytacrine formation [8]: markedly increased 1-hydroxytacrine formation
effect of pretreatment on binding [9]: little or no effect on binding

Nc1c2c(nc3ccccc13)CCCC2O (stereo not shown) [1-Hydroxytacrine, 1-hydroxytacrine]
higher plasma concentrations [12]: approximately 40%
irreversible binding to human microsomal protein ([5]; 1-hydroxytacrine): found to bind irreversibly
1-hydroxytacrine equivalents irreversibly bound to 1 mg microsomal protein ([5]; enoxacin 0.0, 20 min): 0.018 ± 0.001
irreversible binding of derived radioactivity to microsomal protein ([5]; Table 6, deletion of NADPH): no irreversible
mean AUC(O-tldc), dose proportionality [11]: increased greater than dose proportionally
elimination rate from plasma ([11]; all volunteers): appeared to be limited by the rate of formation
excretion and 1-hydroxytacrine plasma concentrations in cigarette smokers ([11]; smokers compared to nonsmokers): decreased excretion and lower 1-hydroxytacrine plasma concentrations

B1: EH: human liver expoxide hydrase (EH) (protein, UniProt P07099 1-455, looked up)
Epoxide hydrolase 1: MWLEILLTSVLGFAIYWFISRDKEETLPLEDGWWGPGTRSAAREDDSIRPFKVETSDEEIHDLHQRIDKFRFTPPLEDSCFHYGFNSNYLKKVISYWRNEFDWKKQVEILNRYPHFKTKIEGLDIHFIHVKPPQLPAGHTPKPLLMVHGWPGSFYEFYKIIPLLTDPKNHGLSDEHVFEVICPSIPGYGFSEASSKKGFNSVATARIFYKLMLRLGFQEFYIQGGDWGSLICTNMAQLVPSHVKGLHLNMALVLSNFSTLTLLLGQRFGRFLGLTERDVELLYPVKEKVFYSLMRESGYMHIQCTKPDTVGSALNDSPVGLAAYILEKFSTWTNTEFRYLEDGGLERKFSLDDLLTNVMLYWTTGTIISSQRFYKENLGQGWMTQKHERMKVYVPTGFSAFPFELLHTPEKWVRFKYPKLISYSYMVRGGHFAAFEEPELLAQDIRKFLSVLERQ
effect on irreversible protein binding ([9]; with EH (100 ug)): 16.6
Tacrine equivalents irreversibly bound to 1 mg microsomal protein ([9]; with EH (100 ug)): 0.116 ± 0.007 nmol
detectable adducts with the reactive intermediate [6]: failed to produce detectable adducts
effect on irreversible binding ([6]; 14C tacrine incubations (Table 3, human and rat)): only a slight decrease in binding
effect on irreversible protein binding ([6]; with EH (100 ug)): 35.3
Tacrine equivalents irreversibly bound to 1 mg microsomal protein ([6]; with EH (100 ug)): 0.134 ± 0.026 nmol
